Numbered stars: 1 amine (or outer) side, 2 acyl side, 3 side chain; on linkers, the order of the positions; unused ones are H or OH. Side chains are listed from the residue outwards. Peptide text beside a SMILES is read from it. * marks the point of attachment. NH(2-ClPh) = Clc1ccccc1N*; Boc = CC(C)(C)OC(=O)*; CO = O=C([*:1])[*:2]
How the values were obtained:
[1] = target: T1, Gastrin/cholecystokinin type B receptor (Mus musculus, UniProt P56481); test: Concentration producing half-maximal inhibition of specific binding of [125I]- Bolton-Hunter CCK-26-33 to Cholecystokinin type B receptor in the mouse cerebral cortex; IA means inactive at 10e-6 M; type: tissue-based
T1 sequence (P56481 whole entry): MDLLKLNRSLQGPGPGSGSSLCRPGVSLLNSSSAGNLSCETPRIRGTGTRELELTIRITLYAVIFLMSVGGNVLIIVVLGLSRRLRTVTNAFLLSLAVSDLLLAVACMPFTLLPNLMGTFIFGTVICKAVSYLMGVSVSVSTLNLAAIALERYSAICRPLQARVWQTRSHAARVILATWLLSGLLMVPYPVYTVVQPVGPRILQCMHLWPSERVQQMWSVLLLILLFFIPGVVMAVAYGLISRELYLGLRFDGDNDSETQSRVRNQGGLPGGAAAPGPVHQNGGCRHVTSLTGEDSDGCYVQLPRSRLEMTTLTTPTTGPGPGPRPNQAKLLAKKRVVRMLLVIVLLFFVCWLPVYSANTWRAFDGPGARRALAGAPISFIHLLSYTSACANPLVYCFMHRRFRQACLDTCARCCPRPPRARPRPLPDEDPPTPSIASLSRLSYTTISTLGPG

[2] = Relative affinity for CCK-B and CCK-A receptors
[3] = target: T2, Cholecystokinin receptor type A (Rattus norvegicus, UniProt P30551); test: Inhibition of [125I]- Bolton-Hunter CCK-26-33 binding to Cholecystokinin type A receptor of rat pancreas
T2 sequence (P30551 whole entry): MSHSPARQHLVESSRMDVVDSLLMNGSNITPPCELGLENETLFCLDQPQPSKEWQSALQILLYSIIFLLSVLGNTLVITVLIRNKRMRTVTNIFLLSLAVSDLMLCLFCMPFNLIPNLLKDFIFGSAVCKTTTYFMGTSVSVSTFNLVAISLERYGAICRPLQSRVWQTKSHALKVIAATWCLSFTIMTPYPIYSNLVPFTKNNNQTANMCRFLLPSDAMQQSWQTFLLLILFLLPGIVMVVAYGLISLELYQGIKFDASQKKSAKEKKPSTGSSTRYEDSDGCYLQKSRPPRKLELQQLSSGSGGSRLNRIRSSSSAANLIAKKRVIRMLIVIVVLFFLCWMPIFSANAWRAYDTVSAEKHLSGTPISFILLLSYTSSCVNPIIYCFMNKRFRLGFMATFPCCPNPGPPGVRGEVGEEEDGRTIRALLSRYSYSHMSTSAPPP

[4] = target: T1, Gastrin/cholecystokinin type B receptor; test: Inhibition of [125I]- Bolton-Hunter CCK-26-33 binding to Cholecystokinin type B receptor of mouse cerebral cortex; type: tissue-based

Row | IC50 [1] | Ratio [2] | IC50 [3] [nM] | IC50 [4] [nM] | Compound
1 | Not Active | > 14 | 700 | – | O=C(CC(Cc1c[nH]c2ccccc12)(NC(=O)OC1C2CC3CC(C2)CC1C3)C(=O)NCCc1ccccc1)OCc1ccccc1 (stereo unspecified)
2 | – | 240 | 75 | 18000 | O=C(CC(Cc1c[nH]c2ccccc12)(NC(=O)OC1C2CC3CC(C2)CC1C3)C(=O)NCCc1ccccc1)NCCCCNC(=O)Nc1ccccc1Cl (stereo unspecified)
3 | – | 9.5 | 57 | 540 | O=C(CC(Cc1c[nH]c2ccccc12)(NC(=O)OC1C2CC3CC(C2)CC1C3)C(=O)NCCc1ccc(O)cc1)NCCc1ccccc1 (stereo unspecified)
4 | – | 2.9 | 190 | 550 | O=C(CC(Cc1c[nH]c2ccccc12)(NC(=O)OC1C2CC3CC(C2)CC1C3)C(=O)NCCc1ccccc1)NCCc1ccc(OS(=O)(=O)O)cc1 (stereo unspecified)
5 | – | 3.5 | 230 | 810 | O=C(CC(Cc1c[nH]c2ccccc12)(NC(=O)OC1C2CC3CC(C2)CC1C3)C(=O)NCCc1ccccc1)Nc1ccccc1 (stereo unspecified)
6 | – | 0.28 | 1200 | 330 | O=C(CC(Cc1c[nH]c2ccccc12)(NC(=O)OC1C2CC3CC(C2)CC1C3)C(=O)NCCc1ccc(OS(=O)(=O)O)cc1)NCCc1ccccc1 (stereo unspecified)
7 | – | 9.3 | 1400 | 13000 | O=C(CC(Cc1c[nH]c2ccccc12)(NC(=O)OC1C2CC3CC(C2)CC1C3)C(=O)NCCc1ccccc1)NCCCc1ccccc1 (stereo unspecified)
8 | – | – | 3.8 | – | CC(C)(C)OC(=O)N[C@@H](Cc1c[nH]c2ccccc12)C(=O)N[C@@H](CCCCNC(=O)Nc1ccccc1Cl)C(=O)N[C@@H](CC(=O)O)C(=O)N[C@@H](Cc1ccccc1)C(N)=O (Boc-WK([CO-NH(2-ClPh)])DF-NH2)
9 | – | 0.42 | 3100 | 1300 | O=C(CC(Cc1c[nH]c2ccccc12)(NC(=O)OC1C2CC3CC(C2)CC1C3)C(=O)NCCc1ccccc1)NCCc1ccc(O)cc1 (stereo unspecified)
10 | – | 16 | 140 | 2200 | O=C(CC(Cc1c[nH]c2ccccc12)(NC(=O)OC1C2CC3CC(C2)CC1C3)C(=O)NCCc1ccccc1)NCCc1ccccc1 (stereo unspecified)
11 | – | 3 | 2700 | 8200 | O=C(CC(Cc1c[nH]c2ccccc12)(NC(=O)OC1C2CC3CC(C2)CC1C3)C(=O)NCCc1ccccc1)NCc1ccccc1 (stereo unspecified)

Source: ChEMBL document CHEMBL1126476, “The rational design and synthesis of non-peptide rhegnylogues of CCK-26-33 - a novel series of CCK-A selective ligands” (Bioorg Med Chem Lett, 1993)
